Read-outs that look alike come from different tables or passages of the source.
Key:
JAK1 = biological target: T1, JAK1 (Homo sapiens, UniProt P23458); assay: Biochemical JAK1 kinase assay (LanthaScreen); conditions: for Ki: read-out: JAK 1 (pKi) (converted)
T1 construct: GST; purchased Life Technologies
Summary of the method: (§1)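 Recombinant GST-tagged JAK enzymes with GFP-STAT1 peptide substrate in 50 mM HEPES pH 7.5, 10 mM MgCl2, 1 mM EGTA, 0.01% Brij-35; compounds pre-incubated 1 h, then ATP added, 1 h reaction at ambient temperature. TR-FRET (Tb-anti-pSTAT1 pTyr701, 520/495 nm) after EDTA stop; IC50 by 4-parameter fit, converted to pKi via Cheng-Prusoff.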

[1] = system: IL-2 stimulated pSTAT5 in Tall-1 T cells; assay: Cellular JAK3 potency assay: inhibition of IL-2 stimulated pSTAT5 in Tall-1 T cells; format: cell-based, human; conditions: for IC50: Homo sapiens, read-out: Tall-1 (pIC50) (converted)
Summary of the method: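 Tall-1 human T cells (45,000/well) in phenol red-free DMEM with 10% FBS were preincubated with compound 1 h at 37 °C, then stimulated with IL-2 (final 300 ng/ml) for 30 min. Lysate pSTAT5 read by AlphaLisa; IC50 from inhibition curves, reported as pIC50 (mean±SD).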

JAK2 = biological target: T2, JAK2 (Homo sapiens, UniProt O60674); assay: Biochemical JAK2 kinase assay (LanthaScreen); conditions: for Ki: read-out: JAK 2 (pKi) (converted)
T2 construct: GST; purchased Life Technologies
Summary of the method: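 GST-tagged recombinant JAK2 pre-incubated 1 h at ambient temperature with compound and GFP-STAT1 peptide in HEPES pH 7.5/MgCl2 buffer, then ATP added for a 1 h reaction with 1% DMSO. TR-FRET read after EDTA and Tb-anti-pSTAT1 (pTyr701) addition; IC50 from 4-parameter fit, converted to pKi by Cheng-Prusoff.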

JAK3 = biological target: T3, JAK3 (Homo sapiens, UniProt P52333); assay: Biochemical JAK3 kinase assay (LanthaScreen); parameters: GST; purchased Life Technologies; conditions: for Ki: read-out: JAK 3 (pKi) (converted)
T3 sequence (P52333 1-1124): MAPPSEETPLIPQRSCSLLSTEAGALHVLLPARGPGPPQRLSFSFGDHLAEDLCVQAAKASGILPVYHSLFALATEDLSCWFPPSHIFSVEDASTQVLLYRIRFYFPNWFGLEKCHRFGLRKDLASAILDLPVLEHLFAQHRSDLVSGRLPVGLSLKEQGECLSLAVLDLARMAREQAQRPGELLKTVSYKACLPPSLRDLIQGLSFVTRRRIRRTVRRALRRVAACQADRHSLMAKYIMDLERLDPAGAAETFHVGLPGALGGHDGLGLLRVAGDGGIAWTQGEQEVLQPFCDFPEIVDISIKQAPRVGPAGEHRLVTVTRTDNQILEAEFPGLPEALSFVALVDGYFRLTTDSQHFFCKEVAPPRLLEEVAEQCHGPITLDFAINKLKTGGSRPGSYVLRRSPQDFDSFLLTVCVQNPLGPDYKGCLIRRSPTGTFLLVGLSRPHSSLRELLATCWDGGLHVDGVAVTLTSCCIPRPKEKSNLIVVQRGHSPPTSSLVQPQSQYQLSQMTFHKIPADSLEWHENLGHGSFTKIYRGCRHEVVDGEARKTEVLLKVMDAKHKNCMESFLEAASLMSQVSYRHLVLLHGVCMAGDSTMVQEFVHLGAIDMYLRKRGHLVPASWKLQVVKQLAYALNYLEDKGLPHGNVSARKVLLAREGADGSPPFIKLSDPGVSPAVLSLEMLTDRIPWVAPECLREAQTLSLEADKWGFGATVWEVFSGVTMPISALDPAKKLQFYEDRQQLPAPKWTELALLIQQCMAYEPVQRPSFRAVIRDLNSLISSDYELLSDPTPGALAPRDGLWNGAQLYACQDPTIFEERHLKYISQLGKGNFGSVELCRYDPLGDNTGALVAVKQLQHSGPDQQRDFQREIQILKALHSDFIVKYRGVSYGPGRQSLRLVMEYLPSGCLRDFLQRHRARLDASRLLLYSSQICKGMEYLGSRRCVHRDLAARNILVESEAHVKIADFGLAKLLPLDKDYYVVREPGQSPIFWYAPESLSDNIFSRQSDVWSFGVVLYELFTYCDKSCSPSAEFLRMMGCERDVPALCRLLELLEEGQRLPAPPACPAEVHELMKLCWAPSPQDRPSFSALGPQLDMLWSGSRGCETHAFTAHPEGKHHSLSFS
Summary of the method: as §1

Tyk2 = biological target: T4, Tyk2 (Homo sapiens, UniProt P29597); assay: Biochemical Tyk2 kinase assay (LanthaScreen); conditions: for Ki: read-out: Tyk 2 (pKi) (converted)
T4 construct: GST; purchased Life Technologies
Summary of the method: as §1

[2] = IL-2 stimulated pSTAT5 in Tall-1 T cells
[3] = selectivity: difference of pKi JAK3 and pKi JAK1
[4] = TALL-1, IL-2 stimulated pSTAT5 in Tall-1 T cells
[5] = TALL-1, IL-2 stimulated pSTAT5, Tall-1 T cells
[6] = selectivity JAK3 over JAK1, difference of pKi

T2 sequence (O60674 whole entry): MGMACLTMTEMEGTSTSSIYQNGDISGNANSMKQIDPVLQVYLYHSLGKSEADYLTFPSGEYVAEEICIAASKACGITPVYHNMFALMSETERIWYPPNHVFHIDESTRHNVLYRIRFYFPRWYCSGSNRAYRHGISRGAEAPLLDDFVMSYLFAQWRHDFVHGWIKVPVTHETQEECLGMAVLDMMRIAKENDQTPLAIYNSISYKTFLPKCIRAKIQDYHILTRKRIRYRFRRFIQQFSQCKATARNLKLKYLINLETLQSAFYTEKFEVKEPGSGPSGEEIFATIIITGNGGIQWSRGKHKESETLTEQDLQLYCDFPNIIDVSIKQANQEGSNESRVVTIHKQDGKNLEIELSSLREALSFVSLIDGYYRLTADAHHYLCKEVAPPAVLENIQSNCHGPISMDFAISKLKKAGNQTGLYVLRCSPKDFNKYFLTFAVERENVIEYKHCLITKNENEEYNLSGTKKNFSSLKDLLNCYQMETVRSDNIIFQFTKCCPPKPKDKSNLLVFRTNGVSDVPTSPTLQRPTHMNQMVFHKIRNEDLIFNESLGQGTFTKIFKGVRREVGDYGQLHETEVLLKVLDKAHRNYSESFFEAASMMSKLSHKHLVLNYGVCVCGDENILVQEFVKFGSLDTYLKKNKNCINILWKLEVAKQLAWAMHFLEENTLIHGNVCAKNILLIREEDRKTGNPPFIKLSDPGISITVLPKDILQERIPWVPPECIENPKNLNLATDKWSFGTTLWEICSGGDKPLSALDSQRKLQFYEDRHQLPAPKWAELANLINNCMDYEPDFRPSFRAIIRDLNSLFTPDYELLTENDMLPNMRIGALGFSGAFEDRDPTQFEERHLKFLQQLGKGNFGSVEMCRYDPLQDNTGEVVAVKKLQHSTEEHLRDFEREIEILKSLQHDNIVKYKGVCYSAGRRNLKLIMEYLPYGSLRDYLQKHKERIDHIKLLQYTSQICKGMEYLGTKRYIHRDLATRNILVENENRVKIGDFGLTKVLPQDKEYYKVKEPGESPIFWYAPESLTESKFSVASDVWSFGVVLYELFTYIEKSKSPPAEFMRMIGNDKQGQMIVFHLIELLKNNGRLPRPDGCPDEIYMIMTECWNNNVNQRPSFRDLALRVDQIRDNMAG
T1 sequence (P23458 whole entry): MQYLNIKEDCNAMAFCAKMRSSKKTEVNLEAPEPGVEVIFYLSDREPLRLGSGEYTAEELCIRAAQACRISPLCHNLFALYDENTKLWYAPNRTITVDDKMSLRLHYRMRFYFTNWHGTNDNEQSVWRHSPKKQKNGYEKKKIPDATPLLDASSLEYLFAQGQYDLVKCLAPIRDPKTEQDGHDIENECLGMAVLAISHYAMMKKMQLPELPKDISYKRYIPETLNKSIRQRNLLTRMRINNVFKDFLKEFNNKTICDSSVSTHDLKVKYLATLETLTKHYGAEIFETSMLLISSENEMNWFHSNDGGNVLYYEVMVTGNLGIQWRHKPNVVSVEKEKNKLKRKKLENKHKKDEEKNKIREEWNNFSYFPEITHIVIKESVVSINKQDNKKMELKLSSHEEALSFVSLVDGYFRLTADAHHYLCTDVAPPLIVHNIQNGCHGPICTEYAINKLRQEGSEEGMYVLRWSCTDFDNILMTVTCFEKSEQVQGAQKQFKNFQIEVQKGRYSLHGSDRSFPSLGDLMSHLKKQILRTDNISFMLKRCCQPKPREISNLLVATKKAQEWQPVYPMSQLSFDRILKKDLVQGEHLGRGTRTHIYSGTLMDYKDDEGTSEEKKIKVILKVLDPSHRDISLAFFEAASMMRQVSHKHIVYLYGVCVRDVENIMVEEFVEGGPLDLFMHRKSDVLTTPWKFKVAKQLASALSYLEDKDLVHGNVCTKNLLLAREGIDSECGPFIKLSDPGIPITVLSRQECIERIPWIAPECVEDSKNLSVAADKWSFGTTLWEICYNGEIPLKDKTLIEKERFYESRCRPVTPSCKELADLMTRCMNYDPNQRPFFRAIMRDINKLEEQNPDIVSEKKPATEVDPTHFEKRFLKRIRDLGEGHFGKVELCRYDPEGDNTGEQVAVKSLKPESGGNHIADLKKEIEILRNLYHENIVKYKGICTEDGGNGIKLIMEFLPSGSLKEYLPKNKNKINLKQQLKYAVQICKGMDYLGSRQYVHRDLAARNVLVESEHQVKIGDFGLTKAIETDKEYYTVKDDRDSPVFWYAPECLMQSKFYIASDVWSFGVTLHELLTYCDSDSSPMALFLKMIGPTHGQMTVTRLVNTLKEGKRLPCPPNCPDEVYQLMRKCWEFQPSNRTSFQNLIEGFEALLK
T4 sequence (P29597 whole entry): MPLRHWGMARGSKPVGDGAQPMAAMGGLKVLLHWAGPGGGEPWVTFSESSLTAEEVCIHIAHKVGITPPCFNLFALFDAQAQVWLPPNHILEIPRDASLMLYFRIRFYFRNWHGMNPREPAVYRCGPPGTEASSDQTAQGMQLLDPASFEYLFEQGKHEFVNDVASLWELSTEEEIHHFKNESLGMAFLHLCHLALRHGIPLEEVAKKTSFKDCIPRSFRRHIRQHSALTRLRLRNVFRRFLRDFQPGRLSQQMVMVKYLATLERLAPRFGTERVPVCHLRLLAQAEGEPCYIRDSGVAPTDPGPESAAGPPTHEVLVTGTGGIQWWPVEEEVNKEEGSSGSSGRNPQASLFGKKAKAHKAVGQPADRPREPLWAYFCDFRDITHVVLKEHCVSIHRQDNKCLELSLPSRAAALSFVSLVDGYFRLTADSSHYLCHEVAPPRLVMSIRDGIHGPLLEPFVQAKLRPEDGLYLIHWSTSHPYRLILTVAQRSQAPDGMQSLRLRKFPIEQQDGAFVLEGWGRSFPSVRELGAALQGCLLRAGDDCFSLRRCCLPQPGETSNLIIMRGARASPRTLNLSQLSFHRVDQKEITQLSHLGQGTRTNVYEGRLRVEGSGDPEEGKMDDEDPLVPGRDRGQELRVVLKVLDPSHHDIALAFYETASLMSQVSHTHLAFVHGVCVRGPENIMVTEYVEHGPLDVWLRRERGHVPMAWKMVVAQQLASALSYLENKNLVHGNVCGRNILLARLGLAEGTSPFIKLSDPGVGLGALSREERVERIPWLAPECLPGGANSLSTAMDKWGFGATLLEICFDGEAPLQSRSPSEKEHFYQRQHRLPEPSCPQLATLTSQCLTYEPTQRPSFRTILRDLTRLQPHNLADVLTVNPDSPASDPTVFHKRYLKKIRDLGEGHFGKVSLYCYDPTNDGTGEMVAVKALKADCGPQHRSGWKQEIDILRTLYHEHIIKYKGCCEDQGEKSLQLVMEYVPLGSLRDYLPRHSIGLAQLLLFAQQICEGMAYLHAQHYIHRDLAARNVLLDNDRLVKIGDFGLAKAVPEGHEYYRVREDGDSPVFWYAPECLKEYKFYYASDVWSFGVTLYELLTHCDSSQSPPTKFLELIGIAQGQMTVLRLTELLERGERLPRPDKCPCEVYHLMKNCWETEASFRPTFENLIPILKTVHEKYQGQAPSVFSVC

SMILES | JAK 1 (pKi) (JAK1) | Tall-1 (pIC50) [1, 2] | JAK 2 (pKi) (JAK2) | JAK 3 (pKi) (JAK3) | JAK3 (pKi)-JAK1 (pKi) (JAK3; [3]) | Tyk 2 (pKi) (Tyk2) | Ki (JAK1) | IC50 [1, 4] | Ki (JAK2) | Ki (JAK3) | Ki (Tyk2) | IC50 [1, 5] | JAK3 (pKi)-JAK1 (pKi) (JAK3; [6]) | Tall-1 (pIC50) ([1]; IL-2 stimulated pSTAT5, Tall-1 T cells)
C=CC(=O)N1CC[C@H](COc2nc(-c3ccc(O)c(F)c3)nc3[nH]ncc23)C1 [Compound 2-15] | E (a pKi value of 7 or below (Ki of 100 nM or above)) | B (a pIC50 value between 6.7 (included) and 7.5 (IC50 between 200 nM and 32 nM)) | E (a pKi value of 7 or below (Ki of 100 nM or above)) | A (a pKi value≥10 (Ki≤0.1 nM)) | A (a value of 3 or above) | E (a pKi value of 7 or below (Ki of 100 nM or above)) |  |  |  |  |  |  |  | 
C=CC(=O)N1CC(C)(COc2nc(-c3ccc(O)cc3)cc3[nH]ncc23)C1 [Compound 3-56] |  |  |  |  | A (a value of 3 or above) |  | > 100 nM | < 31.6 nM | 10 to 100 nM | < 0.1 nM | > 100 nM |  |  | 
C=CC(=O)N1CC(C)(COc2cc(-c3ccc(O)c(F)c3)nc3[nH]ncc23)C1 [Compound 3-98] |  |  |  |  | A (a value of 3 or above) |  | > 100 nM | 31.6 to 200 nM | > 100 nM | < 0.1 nM | > 100 nM |  |  | 
COC1CCN(C/C=C/C(=O)N2CC(COc3cc(-c4ccc(O)cc4)cc4[nH]ncc34)C2)CC1 [Compound 3-127] |  |  |  |  | A (a value of 3 or above) |  | > 100 nM | 31.6 to 200 nM | 10 to 100 nM | < 0.1 nM | > 100 nM |  |  | 
C=CC(=O)N1CC(COc2cc(-c3ccc(O)cc3)cc3[nH]ncc23)(OC)C1 [Compound 3-33] | E (a pKi value of 7 or below (Ki of 100 nM or above)) | B (a pIC50 value between 6.7 (included) and 7.5 (IC50 between 200 nM and 32 nM)) | E (a pKi value of 7 or below (Ki of 100 nM or above)) | B (a pKi value between 9 and 10 (Ki between 1 nM and 0.1 nM)) | B (a value of 2.3 to 3) | E (a pKi value of 7 or below (Ki of 100 nM or above)) |  |  |  |  |  |  |  | 
C=CC(=O)N1CC(C#N)(COc2cc(-c3ccc(O)c(F)c3)nc3[nH]ncc23)C1 [Compound 3-111] | E (a pKi value of 7 or below (Ki of 100 nM or above)) | C (a pIC50 value between 6 and 6.7 (IC50 between 1 μM and 200 nM)) | E (a pKi value of 7 or below (Ki of 100 nM or above)) | B (a pKi value between 9 and 10 (Ki between 1 nM and 0.1 nM)) | A (a value of 3 or above) | E (a pKi value of 7 or below (Ki of 100 nM or above)) |  |  |  |  |  |  |  | 
C=CC(=O)N1CC(F)(COc2cc(-c3ccc(O)c(Cl)c3)nc3[nH]ncc23)C1 [Compound 3-94] | E (a pKi value of 7 or below (Ki of 100 nM or above)) | A (a pIC50 value≥7.5 (IC50≤32 nM)) | E (a pKi value of 7 or below (Ki of 100 nM or above)) | A (a pKi value≥10 (Ki≤0.1 nM)) | A (a value of 3 or above) | E (a pKi value of 7 or below (Ki of 100 nM or above)) |  |  |  |  |  |  |  | 
CN(C)C/C=C/C(=O)N1CC(S(=O)(=O)c2cc(-c3ccc(O)cc3)cc3[nH]ncc23)C1 [Compound 12-49] |  |  |  |  |  |  | > 100 nM |  | > 100 nM | 0.1 to 1 nM | > 100 nM | 200 to 1000 nM | A (a value of 3 or above) | 
CN(C)C/C=C/C(=O)N1CC(CN(C)c2cc(-c3ccc(O)cc3)cc3[nH]ncc23)C1 [Compound 11, (E)-4-(dimethylamino)-1-(3-(((6-(4-hydroxyphenyl)-1H-indazol-4-yl)(methyl)amino)methyl)azetidin-1-yl)but-2-en-1-one] |  |  |  |  | A (a value of 3 or above) |  | > 100 nM | 31.6 to 200 nM | > 100 nM | 0.1 to 1 nM | > 100 nM |  |  | 
C=CC(=O)N1CC(CC)(COc2nc(-c3ccc(O)c(Cl)c3)cc3[nH]ncc23)C1 [Compound 3-66] | E (a pKi value of 7 or below (Ki of 100 nM or above)) | A (a pIC50 value≥7.5 (IC50≤32 nM)) | E (a pKi value of 7 or below (Ki of 100 nM or above)) | B (a pKi value between 9 and 10 (Ki between 1 nM and 0.1 nM)) | A (a value of 3 or above) | E (a pKi value of 7 or below (Ki of 100 nM or above)) |  |  |  |  |  |  |  | 
C=CC(=O)N1C2CCC1CC(Oc1cc(-c3ccc(O)cc3)cc3[nH]ncc13)C2 (stereo not drawn) [Compound 9-1] | E (a pKi value of 7 or below (Ki of 100 nM or above)) |  | D (a pKi value between 7 and 8 (Ki between 100 nM and 10 nM)) | A (a pKi value≥10 (Ki≤0.1 nM)) |  | E (a pKi value of 7 or below (Ki of 100 nM or above)) |  |  |  |  |  |  | A (a value of 3 or above) | A (a pIC50 value≥7.5 (IC50≤32 nM))
C=CC(=O)N1CC(COc2nc(-c3ccc(O)cc3)nc3[nH]ncc23)C1C (stereo not drawn) [Compound 3-31] | E (a pKi value of 7 or below (Ki of 100 nM or above)) | B (a pIC50 value between 6.7 (included) and 7.5 (IC50 between 200 nM and 32 nM)) | E (a pKi value of 7 or below (Ki of 100 nM or above)) | A (a pKi value≥10 (Ki≤0.1 nM)) | A (a value of 3 or above) | E (a pKi value of 7 or below (Ki of 100 nM or above)) |  |  |  |  |  |  |  | 
CN(C)C/C=C/C(=O)N1CC(OCc2cc(-c3ccc(O)cc3)cc3[nH]ncc23)C1 [Compound 12-38] |  |  |  |  |  |  | > 100 nM |  | > 100 nM | < 0.1 nM | > 100 nM | 31.6 to 200 nM | A (a value of 3 or above) | 

Source: patent US10392368B2, “Pyrazolo and triazolo bicyclic compounds as JAK kinase inhibitors” (THERAVANCE BIOPHARMA R&D IP, LLC, priority 2017, dated 2019)
